Measurements from PubChem BioAssay (NCI).
Where “and” joins values, the source holds several entries; their conditions need not be identical. Identical values can stand only once.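 Grown in 96-well plates, cells were treated for 48 hours with each compound at five concentrations. Insufficient inhibition: endpoint recorded as highest concentration tested. The concentration for 50% growth inhibition is given as GI50. TGI is the concentration that stops growth completely.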

Tests used:
Test in all cases: NCI anticancer screen, dose series, 48 h
COLO 205 colon = tested on: COLO 205 colon
HOP-62 NSCLC = tested on: HOP-62 NSCLC
HS 578T breast = tested on: HS 578T breast
LOX IMVI melanoma = tested on: LOX IMVI melanoma
MDA-MB-231 breast = tested on: MDA-MB-231 breast
NCI-H23 lung = tested on: NCI-H23 lung
SF-295 CNS = tested on: SF-295 CNS
SNB-19 CNS = tested on: SNB-19 CNS
MALME-3M melanoma = tested on: MALME-3M melanoma
SN12C renal = tested on: SN12C renal

SMILES | GI50 (COLO 205 colon) | TGI (COLO 205 colon) | GI50 (HOP-62 NSCLC) [µM] | TGI (HOP-62 NSCLC) [µM] | GI50 (HS 578T breast) [µM] | TGI (HS 578T breast) [µM] | GI50 (LOX IMVI melanoma) [µM] | TGI (LOX IMVI melanoma) [µM] | GI50 (MDA-MB-231 breast) [µM] | TGI (MDA-MB-231 breast) [µM] | GI50 (NCI-H23 lung) | TGI (NCI-H23 lung) | GI50 (SF-295 CNS) [µM] | TGI (SF-295 CNS) [µM] | GI50 (SNB-19 CNS) | TGI (SNB-19 CNS) | GI50 (MALME-3M melanoma) | TGI (MALME-3M melanoma) | GI50 (SN12C renal) | TGI (SN12C renal) [µM]
CN(/N=N/c1nc(OCc2ccccc2)c2[nH]cnc2n1)C(=O)Oc1ccc([N+](=O)[O-])cc1 | 10.2 µM | 29.7 µM | 28.8 | > 50 | 8.61 | 29.6 | 1.14 | 10.8 | 5.78 | 18.6 | 8.44 µM | 16.4 µM | 11.1 | 33.6 | 9.6 µM | 27.9 µM | – | – | – | –
C=C1c2c(Cl)ccc(O)c2C(O)=C2C(=O)[C@]3(O)C(O)=C(C(N)=O)C(=O)[C@@H](N(C)C)[C@@H]3[C@@H](O)[C@H]12 | 1.11 µM | 3.02 µM | 0.984 | 3.1 | 1.24 | 9.68 | 0.924 | 3.59 | 1.07 | 2.93 | 1.08 µM | 4.14 µM | 1.19 | 5 | 1.44 µM | > 50 µM | 1.15 µM | 3.45 µM | 1.38 µM | 12.4
[Cl][Cd][Cl] | > 46.7 µM and 12.9 µM | > 69.2 µM and 36.3 µM | 39.7 | 93.1 | 10.1 | 57.4 | 24.8 | 75.9 | 16.5 | 53.9 | 3.08 µM and 25.4 µM and 2.68 µM | 58.1 µM and 10.8 µM | 76.4 | 155 | > 44.1 µM and 49.9 µM | > 61 µM and 146 µM | 5.5 µM and > 34.7 µM and 3.68 µM | > 49.4 µM and 9.41 µM | > 69 µM and 53 µM | 158
Oc1ccc(Cl)cc1CNc1nc2ccccc2[nH]1 | 16.8 µM | 32.9 µM | 11.8 | 27.2 | 13.6 | 42.1 | 13.7 | 28.8 | 8.31 | 22.4 | 14.3 µM | 33.1 µM | 12.9 | 27.5 | 14.4 µM | 40.3 µM | 13.8 µM | 32.9 µM | 13.7 µM | 29.4
C/C=C(\C)C(=O)N[C@H]1C(O)C[C@]2(C)C3CC[C@@]4(C)C(CC[C@@H]4C(C)N(C)C)C3CCC2C1O (stereo not given in full) | 1.74 µM | 3.48 µM | 5.97 | 11.8 | 6.56 | 29.6 | 1.81 | 4.7 | 6.06 | 18 | 13.1 µM | 49.7 µM | 8.83 | 29 | 18.8 µM | 43.8 µM | 2.6 µM | 7.47 µM | 8.47 µM | 37.9
O=C1OC(c2ccccc2)=N/C1=C\c1cccc(F)c1 | – | > 100 µM | – | 92.6 | – | > 100 | – | 45.6 | – | > 100 | – | > 100 µM | – | > 100 | – | > 100 µM | – | – | – | > 100
CO[C@H]1CC(c2ccc[nH]2)=N[C@]12O[C@@H](C)C[C@@H]1CCCCCCCc3ccc([nH]3)[C@H]12 | 0.794 µM | 4.68 µM | 1.35 | 14.9 | 0.888 | 7.11 | 0.52 | 1.26 | 0.853 | 5.23 | 1.21 µM | 8.03 µM | 1.39 | 7.92 | 3.41 µM | > 33.3 µM | 0.886 µM | 3.62 µM | 1.49 µM | 18.9
CCN(CC)CCOc1ccc(C(=O)/C=C\c2ccc(Cl)cc2Cl)cc1 | 1.95 µM | 5.15 µM | 11 | 24.9 | 9.47 | 32 | 1.78 | 3.6 | 4.92 | 20.1 | 7.15 µM | 22.1 µM | 8.7 | 22.3 | 6.81 µM | 24.4 µM | 3.41 µM | 15.3 µM | 6.52 µM | 21.9
COc1cc(/C=C/C(=O)c2cccnc2Nc2ccc(F)cc2)cc(OC)c1OC | 2.64 µM | 5.53 µM | 2.9 | 7.82 | 3.68 | 95.2 | 1.69 | 3.59 | 3.07 | 11.8 | 2.34 µM | 7.77 µM | 4.16 | 69.4 | 3.73 µM | 33.2 µM | 6.9 µM | 48.9 µM | 3.23 µM | > 100
O=S(=O)(NCCNc1nccc(-c2c(-c3ccc(F)cc3)nc3sccn23)n1)c1ccccc1 | 2.23 µM | > 100 µM | 26.4 | > 100 | 13.6 | > 100 | 3.41 | 93.1 | 16.6 | > 100 | 16.2 µM | > 100 µM | 7.64 | 34.2 | 9.88 µM | > 100 µM | 5.82 µM | 51.1 µM | 6.86 µM | > 100
O=C(Nc1ccc(Cl)c(Cl)c1)OCCN1c2ccccc2Sc2ccccc21 | – | > 10 µM | – | > 10 | – | > 10 | – | > 10 | – | > 10 | – | > 10 µM | – | > 10 | – | > 10 µM | – | > 10 µM | – | > 10
CCn1c2ccccc2c2cc(C(O)c3cccc4ncccc34)ccc21 (stereo not given) | 0.0427 µM | 0.251 µM | 0.0507 | > 73.3 | 0.0505 | 23.5 | 0.0631 | 13.4 | 0.128 | 11.4 | 0.0958 µM | 19.5 µM | 0.0335 | 22.1 | 0.0437 µM | 34.7 µM | – | – | 0.0591 µM | 6.24
O=C1CC(c2ccc(Cl)cc2)Oc2ccccc21 (stereo not given) | – | 89.1 µM | – | 56 | – | 54.8 | – | 93.6 | – | 53.9 | – | 40.2 µM | – | > 100 | – | 77.7 µM | – | – | – | –
CN1C(Cl)=NS(=O)(=O)c2ccccc21 | – | > 100 µM | – | > 100 | – | > 100 | – | > 100 | – | > 100 | – | > 100 µM | – | > 100 | – | > 100 µM | – | – | – | > 100
